ChEMBL document CHEMBL5528002, “Identification of selective 5-LOX and FLAP inhibitors as novel anti-inflammatory agents by ligand-based virtual screening” (Eur J Med Chem, 2024)

Tests used:
Macrophage cell line [1] = experiment: Effect on lipid mediator formation in human M1-like phenotype MDM cells by measuring 15-HEPE formation at 10 uM pre-incubated for 15 mins followed by SACM stimulation and measured after 90 mins by UPLC-MS/MS analysis relative to control; type: functional; conditions: time 105 min, 1.75 h
Macrophage cell line [2] = experiment: Effect on lipid mediator formation in human M1-like phenotype MDM cells by measuring 7-HDHA formation at 10 uM pre-incubated for 15 mins followed by SACM stimulation and measured after 90 mins by UPLC-MS/MS analysis (reference value: 118 +/- 14 pg/ml); type: functional; conditions: time 105 min, 1.75 h
Macrophage cell line [3] = experiment: Effect on lipid mediator formation in human M2-like phenotype MDM cells by measuring 17-HDHA formation at 10 uM pre-incubated for 15 mins followed by SACM stimulation and measured after 90 mins by UPLC-MS/MS analysis relative to control; type: functional; conditions: time 105 min, 1.75 h
Macrophage cell line [4] = experiment: Effect on lipid mediator formation in human M2-like phenotype MDM cells by measuring PGD2 formation at 10 uM pre-incubated for 15 mins followed by SACM stimulation and measured after 90 mins by UPLC-MS/MS analysis relative to control; type: functional; conditions: time 105 min, 1.75 h
[5] = biological target: T1, Polyunsaturated fatty acid 5-lipoxygenase (Homo sapiens) (UniProt P09917); experiment: Inhibition of human recombinant 5-LOX expressed in Escherichia coli BL21(DE3) assessed as enzyme remaining activity at 10 uM using arachidonic acid as substrate preincubated with compound for 15 mins followed by substrate and CaCl2 addition measured after 10 mins by RP-HPLC analysis relative to control; conditions: time 25.0 min
T1 sequence (whole entry): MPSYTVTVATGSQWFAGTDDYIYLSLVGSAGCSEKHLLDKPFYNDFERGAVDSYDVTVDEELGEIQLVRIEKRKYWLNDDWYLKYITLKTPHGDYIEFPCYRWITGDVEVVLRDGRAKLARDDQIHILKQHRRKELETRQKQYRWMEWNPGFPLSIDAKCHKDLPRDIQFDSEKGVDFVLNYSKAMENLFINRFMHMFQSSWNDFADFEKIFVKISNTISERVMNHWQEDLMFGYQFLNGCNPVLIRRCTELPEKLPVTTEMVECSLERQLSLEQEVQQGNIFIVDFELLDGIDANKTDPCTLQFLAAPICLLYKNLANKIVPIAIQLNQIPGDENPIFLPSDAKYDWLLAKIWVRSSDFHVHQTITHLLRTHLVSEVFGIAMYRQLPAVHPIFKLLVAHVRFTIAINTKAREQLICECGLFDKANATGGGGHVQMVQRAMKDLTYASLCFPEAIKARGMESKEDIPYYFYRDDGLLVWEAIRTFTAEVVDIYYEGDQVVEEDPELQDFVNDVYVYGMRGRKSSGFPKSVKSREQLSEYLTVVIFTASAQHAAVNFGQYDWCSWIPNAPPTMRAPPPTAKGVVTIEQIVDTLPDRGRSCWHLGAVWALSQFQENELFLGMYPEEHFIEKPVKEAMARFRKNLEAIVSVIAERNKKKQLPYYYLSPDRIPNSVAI

Macrophage cell line [6] = experiment: Effect on lipid mediator formation in human M1-like phenotype MDM cells by measuring t-LTB4 formation at 10 uM pre-incubated for 15 mins followed by SACM stimulation and measured after 90 mins by UPLC-MS/MS analysis (reference value: 338 +/- 102 pg/ml); type: functional; conditions: time 105 min, 1.75 h
Macrophage cell line [7] = experiment: Effect on lipid mediator formation in human M1-like phenotype MDM cells by measuring 4-HDHA formation at 10 uM pre-incubated for 15 mins followed by SACM stimulation and measured after 90 mins by UPLC-MS/MS analysis (reference value: 58 +/- 9 pg/ml); type: functional; conditions: time 105 min, 1.75 h
[8] = biological target: T1, Polyunsaturated fatty acid 5-lipoxygenase (Homo sapiens); experiment: Inhibition of 5-LOX in human Neutrophil assessed as enzyme remaining activity at 10 uM preincubated with compound for 15 mins followed by A23187 addition measured after 10 mins by RP-HPLC analysis relative to control; type: cell-based; conditions: time 25.0 min
Macrophage cell line [9] = experiment: Effect on lipid mediator formation in human M1-like phenotype MDM cells by measuring 5-HEPE formation at 10 uM pre-incubated for 15 mins followed by SACM stimulation and measured after 90 mins by UPLC-MS/MS analysis relative to control; type: functional; conditions: time 105 min, 1.75 h
Macrophage cell line [10] = experiment: Effect on lipid mediator formation in human M2-like phenotype MDM cells by measuring MaR2 formation at 10 uM pre-incubated for 15 mins followed by SACM stimulation and measured after 90 mins by UPLC-MS/MS analysis relative to control; type: functional; conditions: time 105 min, 1.75 h
[11] = biological target: T1, Polyunsaturated fatty acid 5-lipoxygenase (Homo sapiens); experiment: Inhibition of 5-LOX in human Neutrophil at 10 uM using arachidonic acid as substrate preincubated with compound for 15 mins followed by substrate and A23187 addition measured after 10 mins by RP-HPLC analysis relative to control; type: cell-based; conditions: time 25.0 min
Macrophage cell line [12] = experiment: Effect on lipid mediator formation in human M2-like phenotype MDM cells by measuring PGE2 formation at 10 uM pre-incubated for 15 mins followed by SACM stimulation and measured after 90 mins by UPLC-MS/MS analysis relative to control; type: functional; conditions: time 105 min, 1.75 h
Macrophage cell line [13] = experiment: Effect on lipid mediator formation in human M1-like phenotype MDM cells by measuring 5,15-diHETE formation at 10 uM pre-incubated for 15 mins followed by SACM stimulation and measured after 90 mins by UPLC-MS/MS analysis relative to control; type: functional; conditions: time 105 min, 1.75 h
Macrophage cell line [14] = experiment: Effect on lipid mediator formation in human M2-like phenotype MDM cells by measuring 5-HETE formation at 10 uM pre-incubated for 15 mins followed by SACM stimulation and measured after 90 mins by UPLC-MS/MS analysis (reference value: 4812 +/- 561 pg/ml); type: functional; conditions: time 105 min, 1.75 h
Macrophage cell line [15] = experiment: Effect on lipid mediator formation in human M1-like phenotype MDM cells by measuring PGE2 formation at 10 uM pre-incubated for 15 mins followed by SACM stimulation and measured after 90 mins by UPLC-MS/MS analysis relative to control; type: functional; conditions: time 105 min, 1.75 h
Macrophage cell line [16] = experiment: Effect on lipid mediator formation in human M1-like phenotype MDM cells by measuring 5S,6R-diHETE formation at 10 uM pre-incubated for 15 mins followed by SACM stimulation and measured after 90 mins by UPLC-MS/MS analysis relative to control; type: functional; conditions: time 105 min, 1.75 h
Macrophage cell line [17] = experiment: Effect on lipid mediator formation in human M2-like phenotype MDM cells by measuring 14-HDHA formation at 10 uM pre-incubated for 15 mins followed by SACM stimulation and measured after 90 mins by UPLC-MS/MS analysis (reference value: 1517 +/- 298 pg/ml); type: functional; conditions: time 105 min, 1.75 h
Macrophage cell line [18] = experiment: Effect on lipid mediator formation in human M2-like phenotype MDM cells by measuring MaR1 formation at 10 uM pre-incubated for 15 mins followed by SACM stimulation and measured after 90 mins by UPLC-MS/MS analysis (reference value: 76 +/- 18 pg/ml); type: functional; conditions: time 105 min, 1.75 h
Macrophage cell line [19] = experiment: Effect on lipid mediator formation in human M2-like phenotype MDM cells by measuring 15-HETE formation at 10 uM pre-incubated for 15 mins followed by SACM stimulation and measured after 90 mins by UPLC-MS/MS analysis relative to control; type: functional; conditions: time 105 min, 1.75 h
Macrophage cell line [20] = experiment: Effect on lipid mediator formation in human M1-like phenotype MDM cells by measuring 5-HETE formation at 10 uM pre-incubated for 15 mins followed by SACM stimulation and measured after 90 mins by UPLC-MS/MS analysis relative to control; type: functional; conditions: time 105 min, 1.75 h

Compound	Activity (Macrophage cell line [1])	Activity (Macrophage cell line [2])	Activity (Macrophage cell line [3])	Activity (Macrophage cell line [4])	Activity [5]	Activity (Macrophage cell line [6])	Activity (Macrophage cell line [7])	Activity [8]	Activity (Macrophage cell line [9])	Activity (Macrophage cell line [10])	inhibition [11]	Activity (Macrophage cell line [12])	Activity (Macrophage cell line [13])	Activity (Macrophage cell line [14])	Activity (Macrophage cell line [15])	Activity (Macrophage cell line [16])	Activity (Macrophage cell line [17])	Activity (Macrophage cell line [18])	Activity (Macrophage cell line [19])	Activity (Macrophage cell line [20])
COc1ccc(C2=C/C(=C/c3ccc(O)cc3O)C(=O)O2)cc1	98%	36 pg/mL	173%	201%	84.5%	28 pg/mL	47 pg/mL	19.6%	11%	219%	> 50%	259%	13%	450 pg/mL	93%	5%	2718 pg/mL	144 pg/mL	136%	7%
Oc1ccc(CCC2CCC(c3ccc(O)cc3)CO2)cc1 (stereo not given)	97%	45 pg/mL	149%	131%	96.5%	29 pg/mL	44 pg/mL	4.2%	18%	191%	> 50%	147%	30%	1181 pg/mL	69%	5%	2101 pg/mL	81 pg/mL	144%	13%
